From ChEMBL document CHEMBL6096684, “Targeting IspD for Anti-infective and Herbicide Development: Exploring Its Role, Mechanism, and Structural Insights” (J Med Chem, 2025)

How the values were obtained:
[1] = Inhibition of Arabidopsis thaliana IspD
[2] = Inhibition of Plasmodium falciparum IspD
[3] = Inhibition of Plasmodium vivax IspD
[4] = Inhibition of Plasmodium falciparum 3D7 IspD
[5] = Inhibition of wild type Plasmodium falciparum IspD extracted from Escherichia coli BL21 (DE3)

## CCN(CC)CCCC(C)n1c(N)c(-c2nc3ccccc3[nH]2)c2nc(C#N)c(C#N)nc21 (configuration not stated)
[1]
  IC50: 50 µM

## O=c1c2ccccc2sn1-c1cccc(-c2ccc(Cl)cc2)c1
[2]
  IC50: 0.073 µM
[3]
  IC50: 0.057 µM
[4]
  IC50: 1.1 µM

## N#Cc1cnn2c(O)c(Cc3ccccc3)c(Cl)nc12
[1]
  IC50: 35 µM

## O=C(O)[C@H]1Cc2c([nH]c3ccccc23)[C@H](c2ccc(Cl)cc2Cl)N1
[5]
  IC50: 0.047 µM

## O=C(O)c1cnn2c(O)c(Cc3ccccc3)c(Cl)nc12
[1]
  IC50: 274 µM

## CC(C)CCn1c(N)c(-c2nc3ccccc3[nH]2)c2nc3ccccc3nc21
[1]
  IC50: 1.6 µM

## Cc1ccc(C)n1-c1ccc([N+](=O)[O-])cc1C(=O)O
[2]
  IC50: 271 µM

## Cc1ccc(-n2sc3ccccc3c2=O)cc1S(=O)(=O)N1CCOCC1
[2]
  IC50: 0.45 µM
[3]
  IC50: 0.045 µM
[4]
  IC50: 4.3 µM

## Oc1c(Br)cc(Br)cc1-c1[nH]c(Br)c(Br)c1Br [PENTABROMOPSEUDILIN]
[3]
  IC50: 48 µM

## COc1ccc2nc(NC(=O)COc3ccc(-c4ccccc4)cc3)sc2c1
[1]
  IC50: 6.3 µM

## Oc1c(Cl)cc(Cl)cc1-c1[nH]c(Br)c(Br)c1Br [TRIBROMODICHLOROPSEUDILIN]
[3]
  IC50: 56 µM

## Oc1ccc(Br)cc1-c1cc(C(F)(F)F)no1
[1]
  IC50: 418 µM

## Oc1c(Br)cc(Br)cc1-c1cc(C(F)(F)F)no1
[1]
  IC50: 9.3 µM

## Oc1c(Br)cc(Br)cc1-c1ccno1
[1]
  IC50: 121 µM

## Oc1ccc(Br)cc1-c1ccno1
[1]
  IC50: > 500 µM

## O=C(O)[C@H]1Cc2c([nH]c3ccccc23)[C@@H](c2ccc(Cl)cc2Cl)N1
[5]
  IC50: 0.17 µM

## COc1ccc2nc(NC(=O)c3cc(-c4ccccc4O)n[nH]3)sc2c1
[1]
  IC50: 1.8 µM

## O=C(O)[C@@H]1Cc2c([nH]c3ccccc23)[C@@H](c2ccc(Cl)cc2Cl)N1
[5]
  IC50: 0.25 µM
